Experimental data: patent publication US20070021351A1, “Liver/plasma concentration ratio for dosing hepatitis C virus protease inhibitor” (Schering Corporation, priority 2005, published 2007)

Legend:
[1] = tested on: HCV replicon (bicistronic subgenomic replicon, genotype 1b); test: HCV replicon system, 72 hour assay in HuH-7 cells; type: cell-based
Excerpt: Changes in replicon RNA level are compared to an internal control, such as cellular glyceraldehydes-3-phosphate dehydrogenas (GAPDH) messenger RNA levels, in a single-tube multiplex reaction. […] Therefore, it is contemplated that compound of Formula Ia administration to a subject in need thereof according to the present invention results in about a 0.5- to about 4.0-log decrease in viral load RNA levels, preferably about a 1.0- to about 3.0-log decrease in viral load RNA.
Replicon systems are well-established surrogates for viral replication as there is no HCV viral culture system. The HCV replicon is a non-infectious genotype 1b viral genome in which the sequences encoding the structural proteins at the 5′ end of the RNA have been replaced by a selectable marker, neoR.
NS3-mediated cleavage of the HCV polyprotein releases functional viral proteins essential for viral propagation. Therefore, blockage of NS3 protease activity by compound of Formula Ia is expected to inhibit viral replication in infected host cells.

[2] = tested on: HCV polyprotein processing; test: Kinetic studies following polyprotein processing intermediates; type: cell-based
[3] = Liver versus plasma concentration in monkeys (non-GLP assay); type: in vivo; settings: about 24 hours after dosing
Description: For the purpose of the present invention and the data presented herein, the liver to plasma ratio is calculated by determining the IC90 of a compound and inferring the concentration of the compound in the liver based on the concentration of the compound which causes a 90% decrease in viral load. […] It is known that concentrations of the compounds of Formulae I-XXVI in the liver of rats are about thirty to fifty times greater than plasma concentrations, whereas concentrations in the brain are below detection. In monkeys, concentration of the compound of Formula Ia determined by non-GLP assay of plasma sample taken about 24 hours after dosing of the compound was about five times greater in the liver than in plasma.

[4] = Tissue distribution; type: in vivo; settings: liver as well as extra-hepatic sites
[5] = Example 3: multiple-dose (14 days) pharmacokinetics in HCV positive subjects; type: in vivo, human
Description: Multiple escalating doses of compound of Formula Ia were administered for 14 days to HCV positive subjects who were genotype 1 Interferon-a (with or without ribavirin) non responders. In a randomized, placebo controlled, third party blind study, multiple doses of 100 mg BID, 200 mg BID, 400 mg BID, 400 mg TID, and 600 mg TID of compound of Formula Ia or placebo in a 3:1 ratio with or without food were evaluated.
• Group 1: Compound of Formula Ia 100 mg (2×50 mg) BID or matching placebo×14 days without food. • Group 2: Compound of Formula Ia 200 mg (2×100 mg) BID or matching placebo×14 days without food. • Group 3: Compound of Formula Ia 400 mg (4×100 mg) BID or matching placebo×14 days without food. • Group 4: Compound of Formula Ia 400 mg (4×100 mg) TID or matching placebo×14 days without food. • Group 5: Compound of Formula Ia 400 mg (4×100 mg) BID or matching placebo×14 days with food. • Group 6: Compound of Formula Ia 600 mg (6×100 mg) BID or matching placebo×14 days without food. • Group 7: Compound of Formula Ia 600 mg (6×100 mg) BID or matching placebo×14 days with food. • Group 8: compound of Formula Ia 600 mg (6×100 mg) TID or matching placebo×14 days without food. • Group 9: compound of Formula Ia intermediate dose or matching placebo×14 days with or without food.
Each subject was randomized to one treatment group. On Day 14, only the AM dose was administered.
For Cohorts Without Food: Treatments were administered on the morning (approximately 8 AM) of Days 1 and 14 following a 10 hour fast. Fasting continued until 4 hours postdose. Water was allowed during the fasting period. On the nonpharmacokinetic collection days (Days 2 through 13) breakfast and dinner were consumed either 90 minutes before or 90 minutes after each dose. All treatments were administered with approximately 240 mL of noncarbonated water. All doses on Days 1-14 were administered at approximately the same time each day, for cohorts with BID dosing study treatment were administered approximately 12 hours apart at 8 AM and 8 PM, and for cohorts with TID dosing study treatment were administered approximately 8 hours apart at 8 AM, 4 PM, and 12 Midnight.
For Cohorts With TID Dosing: All volunteers were dosed three times daily at approximately the same time each day; the doses were administered approximately 8 hours apart at 8 AM, 4 PM, and 12 Midnight.
For Cohorts With BID Dosing: All volunteers were dosed twice a day at approximately the same time each day. The doses were administered approximately 12 hours apart at 8 AM and 8 PM.
On Day 14, all subjects received only their assigned AM dose. During the dosing the capsule(s) were swallowed whole, not chewed or crushed. After dosing, the oral cavity was inspected to assure the volunteer had completely swallowed the capsule(s). […] Water was permitted throughout the fasting and nonfasting periods. […]
The plasma concentration data of compound of Formula Ia was used to estimate the following pharmacokinetic parameters: • Cmax—Maximum observed plasma concentration; • Tmax—Time of observed maximum plasma concentration; • AUC(O-t)—Area under the plasma concentration-time curve over the dosing interval • AUC (tf)—Area under the plasma concentration-time curve to the final quantifiable sample • CL/F—Apparent total body clearance. • t½—Terminal phase half life • Vd/F—Apparent volume of distribution • R—Accumulation ratio […]

CC(C)(C)NC(=O)N[C@H](C(=O)N1C[C@H]2[C@@H]([C@H]1C(=O)NC(CC1CCC1)C(=O)C(N)=O)C2(C)C)C(C)(C)C (mixture of isomers) [Formula Ia, (1R,5S)-N-[3-Amino-1-(Cyclobutylmethyl)-2,3-Dioxopropyl]-3-[2(S)-[[[(1,1-Dimethylethyl)Amino]Carbonyl]Amino]-3,3-Dimethyl-1-Oxobutyl]-6,6-Dimethyl-3-Azabicyclo[3.1.0]Hexan-2(S)-Carboxamide]
IC50 ([1]; Hepatitis C virus, Huh-7, 72 h, read-out: IC50 for suppression of the HCV replicon): ≤ 200 nM | IC90 ([1]; Hepatitis C virus, Huh-7, 72 h, read-out: IC90 for suppression of the HCV replicon): ≤ 400 nM | replicon RNA decrease compared with 6×IC90 ([1]; exposure to 12×IC90 (5 μM)): comparable results | time until effects become evident [2]: one | concentration in liver relative to plasma [3]: about five | tissue distribution [4]: distributes widely throughout the tissues of the body | mean accumulation ratio for BID dosing ([5]; BID dosing, 14 days): 1 | Cmax ([5]; Day 14, 400 mg BID without food, mean, n=11): 459 ng/mL | AUC(0-12 hr) ([5]; Day 14, 400 mg BID, mean, n=11): 1644 ng·h/mL | concentration at 11 day ([5]; human, plasma, multiple oral dosing, read-out: steady-state level (trough, Cmin)): ~200 ng/mL | time at which steady-state levels were reached ([5]; trough data (Cmin)): ~11 days
